In patent publication US12102432B2, “Uses of transdermal glomerular filtration rate measurement in continuous renal replacement therapy” (MediBeacon Inc., priority 2018, dated 2024):
“And” between values parts separate entries of the source, which are not always exact repeats. Equal values may be shown once.

Key:
[1] = Meropenem infusion in porcine model before CRRT, blood concentration; assay type: in vivo, Swine; details: infused for 30 minutes
Procedure: Swine (3 male and 3 female, for both CVVH and CVVHD modalities) weighing 35-40 kg were used. In this model, a total functional nephrectomy was achieved by ligation of all renal arteries. Animals were inspected by professional veterinary staff within 48 hours of arrival. Any underlying infections or parasitism was treated based on veterinary recommendations. After taking a pre-MB-102 blood sample (baseline), a dose of 6 mg/kg of MB-102 was injected as a single bolus, followed by a 90 minute period of equilibration, to allow for MB-102 systemic redistribution (see FIGS. 7 and 13 for equilibration of fluorescent signal detected by the renal monitoring assembly). Thirty minutes after the MB-102 injection, Meropenum was infused for 30 minutes, which reached a peak concentration in blood ˜1 hr after the start of the infusion. […] Samples collected during these periods, along with the baseline (BSL) sample taken before the MB-102 dose, were assayed, and measured values were used in calculations to compare clearance rates with real-time MB-102 clearance measurements. […] A similar sample collection time-course was initiated at the high flow rate for both the low and high effluent flow rate data sets (seven sample time points at three circuit sites), allowing for similar comparisons of real-time and calculated clearance rates.

[2] = In vitro continuous hemodialysis (CVVHD) model, saturation coefficient; assay type: in vitro ADME, bovine; details: for Saturation coefficient (mean ± SD): CVVHD, blood flow 200 mL/min
Procedure: For CVVHD experiments, the CLTM was assessed using a previously validated in vitro CVVHD model as illustrated in FIG. 6. Commonly used effluent flow rates of 16, 33, 50, and 100 mL/min, and a blood flow rate of 200 mL/min were used. Effluent was prepared according to directions from the manufacturer by mixing sodium bicarbonate powder (NATURALYTE® 4000, Fresenius Medical Care, Waltham, Mass., USA) with distilled water in a 45:1 ratio. After adding MB-102 and urea to the blood, it was recirculated through the circuit for 5 min for uniform coating of the extracorporeal circuit. A single-pass mode of the CVVHD procedure with four different flow rates was run in random order for each hemodiafilter. Blood samples were collected from the pre- and post-filter ports, and spent effluent samples were taken from the effluent port 5 min after initiation of the CVVHD experiments at all four effluent flow rates. These experiments were conducted on 6 new hemodiafilters and CRRT tubing sets. Saturation coefficient (SA) and CLTM were calculated as follows:
[formula] CLdiff=(SA×Qd) Equation (6)
where SA is the saturation coefficient; CUF is the concentration in the effluent; Ca is the concentration of the solute in the pre-filter; CV is the concentration of the solute in the post-filter; CLdiff is the diffusion clearance for post-filter replacement; Qd is the effluent flow rate.
(§1) All blood samples were collected and centrifuged at 3000 rpm for 10 minutes. The plasma and effluent samples were transferred to cryovials in duplicate and stored at −80° C. until analysis. BUN concentrations were analyzed with Advia 1800 (Siemens Healthcare Diagnostic Inc., Tarrytown, N.Y., USA) having a lower limit of quantification of 5 mg/dL.
(§2) Similarly, six CVVH and CVVHD experiments with each hemodiafilter were used to detect a 25% difference in MB-102 CLTM between hemodiafilters. Assumptions used in these calculations included: a power of 90% and a standard deviation of 10% with a significance level of p<0.05. A two-tailed, unpaired t-test was used to compare differences between the two hemodiafilters, and the analysis of variance was used to compare different QUF and Qd within each hemodiafilter type.

[3] = In vitro continuous hemofiltration (CVVH) model, sieving coefficient; assay type: in vitro ADME, bovine; details: CVVH
Procedure: The procedure for the CVVH study was conducted using the model CVVH system illustrated in FIG. 5. The CLTM of urea and MB-102 were evaluated with different blood flow rates, ultrafiltration rate (Quf) and hemodiafilters (Table 1). In a closed-loop system, the formed effluent was returned to the blood as a post-filter replacement fluid downstream from the post-hemodiafilter blood sampling port. Pre- and post-hemodiafilter blood samples, and effluent samples were collected concurrently. Six experiments were conducted for each hemodiafilter, and new hemodiafilters and CRRT apparatus were used for each experiment. Sieving coefficient (SC) and CLTM were calculated as follows:
[formula] where Sc is the sieving coefficient; Cuf is the concentration in the effluent; Ca is the concentration of the solute in the pre-filter; and Cv is the concentration of the solute in the post-filter. CLconv=SC×QUF Equation (4) wherein CLconv is the convective clearance for the post-filter replacement; QUF is the ultrafiltration rate.
as §1, §2

[4] = Adsorption of MB-102 to CRRT apparatus, in vitro CVVH model; assay type: in vitro ADME, bovine; details: for mean percent change at the end of experiment: average of 6 experiments, 60 min; for percent change at the end of each experiment: single experiments 1-6, initial to 60 min, blood flow 200 mL/min, Quf 33 mL/min
Procedure: As an initial step, it was determined if the compound MB-102 adsorbs onto the hemodiafilter, tubing or other parts of the CRRT instrument. This study used a continuous venovenous hemofiltration (CVVH) configuration to assess MB-102 adsorptive clearance with a previously validated in vitro CVVH model using 1 L of pH regulated, citrate-anti-coagulated bovine blood. Using a Braun DIAPACT™ CRRT system, two different hemodiafilters were tested: the HF1400 and the M150 hemodiafilters. New bovine blood, hemodiafilters, and CRRT tubing sets were used in each experiment. The blood was continuously stirred and maintained at 37° C. in a water bath during all experiments. Reconstituted MB-102 was added to the blood to achieve a final concentration of ˜6.2 mg/L. Urea was used as a control and added to the blood to produce a blood urea nitrogen (BUN) concentration of ˜75 mg/dL. Blood flow rates of 200 mL/min with an ultrafiltration rate (Quf) of 33 mL/min were tested. This maximized MB-102 contact with the membranes, both on the blood side and via convection through the hemodiafilter membrane. A closed system was developed to maintain a constant volume in the extracorporeal system. The effluent was used as the replacement fluid which was returned to the blood as a post-filter replacement fluid to maintain a constant blood volume. The CRRT instrument was primed with normal saline before operation, consequently the urea and MB-102 dilution caused by the residual priming solution was accounted for. Blood samples were collected from the pre-filter port at 0 (baseline), 5 (at which time mixing was complete), 10, 20, 30, and 60 minutes. Each experiment was repeated six times with new hemodiafilters and tubing sets.
Equations used to calculate the dilution factor and adsorption are as follows:
[formula] wherein C0 is the concentration of MB-102 in the pre-filter at time=0 minutes; and C60 is the concentration of MB-102 in the pre-filter at time=60 minutes.
[formula] where [Urea0] is the urea concentration in the pre-filter at time=0 minutes; and [Urea60] is the urea concentration in the pre-filter at time=60 minutes.
as §1, with “mg/dL. […]” for “mg/dL.”

time to peak concentration in blood after the start of the infusion [1] [h]	Saturation coefficient (mean ± SD) ([2]; HF1400, Qd 16.7 mL/min)	Saturation coefficient (mean ± SD) ([2]; HF1400, Qd 33.3 mL/min)	Saturation coefficient (mean ± SD) ([2]; HF1400, Qd 50 mL/min)	Saturation coefficient (mean ± SD) ([2]; HF1400, Qd 100 mL/min)	Saturation coefficient (mean ± SD) ([2]; M150, Qd 16.7 mL/min)	Saturation coefficient (mean ± SD) ([2]; M150, Qd 33.3 mL/min)	Saturation coefficient (mean ± SD) ([2]; M150, Qd 50 mL/min)	Saturation coefficient (mean ± SD) ([2]; M150, Qd 100 mL/min)	mean SA values ([2]; low effluent flow rates (16-50 mL/min))	Mean sieving coefficient ([3]; HF1400, ultrafiltration rate 16.7 mL/min)	Mean sieving coefficient ([3]; HF1400, ultrafiltration rate 33.3 mL/min)	Mean sieving coefficient ([3]; HF1400, ultrafiltration rate 50 mL/min)	Mean sieving coefficient ([3]; M150, ultrafiltration rate 16.7 mL/min)	Mean sieving coefficient ([3]; M150, ultrafiltration rate 33.3 mL/min)	Mean sieving coefficient ([3]; M150, ultrafiltration rate 50 mL/min)	mean percent change at the end of experiment ([4]; HF1400 hemodiafilter) [%]	mean percent change at the end of experiment ([4]; M150 hemodiafilter) [%]	SMILES	percent change at the end of each experiment ([4]; HF1400 hemodiafilter)	percent change at the end of each experiment ([4]; M150 hemodiafilter)
~1																		C[C@@H](O)[C@H]1C(=O)N2C(C(=O)O)=C(S[C@@H]3CN[C@H](C(=O)N(C)C)C3)[C@H](C)[C@H]12 [Meropenem, meropenem]		
	1.04 ± 0.07	1.19 ± 0.09	1.17 ± 0.11	1.17 ± 0.19	1.08 ± 0.08	1.16 ± 0.04	1.15 ± 0.15	1.35 ± 0.20	approximately unity	1.08 ± 0.03	1.09 ± 0.05	1.08 ± 0.07	1.00 ± 0.05	1.04 ± 0.10	1.05 ± 0.04	19.5	19.3	NC(N)=O [Urea, reference compound]	19.6% and 20.9% and 18.6% and 20.0% and 18.2%	17.5% and 19.5% and 21.7% and 18.0% and 17.0% and 22.0%
